# Reference: ChEMBL document CHEMBL1201862, “PubChem BioAssay data set” (2004)
# Activity calls are given as the source filed them. Rule as the data show it, for most assays here: actives have a measured EC50 and inactives only a lower limit.
# What was measured:
# [1] = target: T1, Luciferin 4-monooxygenase (Photinus pyralis, UniProt P08659); assay: Counter Screen for Luciferase-based Assay Positives. [Related pubchem assays: 620, 618, 411 ]
# [2] = target: T1, Luciferin 4-monooxygenase; assay: inhibition of purified Photinus pyralis luciferase – biochemical, luminescence, dose response (AID 1891)
# [3] = Luminescence Cell-Based Dose Confirmation HTS to Identify Inhibitors of Platelet Dense Granule Release. [Related pubchem assays: 1663 (Primary HTS), 1678 (Summary of Project)]; type: functional
# HT-1080 = assay: HT1080 cell viability loss – fluorescence readout (AID 620); type: functional, cell-based; conditions: Homo sapiens
# Protein skinhead-1 = target: T2, Protein skinhead-1 (Caenorhabditis elegans, UniProt P34707); type: functional
# T2 sequence (P34707 whole entry): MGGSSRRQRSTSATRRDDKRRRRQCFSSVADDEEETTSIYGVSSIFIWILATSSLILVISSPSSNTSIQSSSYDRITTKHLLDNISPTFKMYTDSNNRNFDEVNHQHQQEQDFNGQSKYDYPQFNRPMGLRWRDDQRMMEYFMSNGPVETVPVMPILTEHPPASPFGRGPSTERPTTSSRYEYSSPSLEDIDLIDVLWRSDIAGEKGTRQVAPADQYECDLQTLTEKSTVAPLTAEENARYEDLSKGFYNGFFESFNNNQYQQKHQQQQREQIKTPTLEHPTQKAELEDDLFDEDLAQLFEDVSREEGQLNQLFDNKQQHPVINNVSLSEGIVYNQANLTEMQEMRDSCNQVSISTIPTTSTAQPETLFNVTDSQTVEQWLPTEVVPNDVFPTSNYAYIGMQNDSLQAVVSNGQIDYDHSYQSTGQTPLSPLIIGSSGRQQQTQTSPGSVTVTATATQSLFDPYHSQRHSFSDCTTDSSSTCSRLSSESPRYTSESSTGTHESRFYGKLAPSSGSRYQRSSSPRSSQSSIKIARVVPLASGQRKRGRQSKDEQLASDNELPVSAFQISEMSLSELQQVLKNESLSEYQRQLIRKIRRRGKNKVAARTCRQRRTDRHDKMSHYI
# Cytochrome P450 2C19 = Cytochrome P450 2C19 (Homo sapiens, UniProt P33261); assay: qHTS Assay for Inhibitors and Substrates of Cytochrome P450 2C19. [Related pubchem assays: 410 ]; type: ADME; conditions: read-out: Potency
# [4] = antiviral protection against BTV-induced cell death – arbovirus, BSR cells, confirmation (AID 1250); type: functional;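 also: protection from viral cytopathic effect measured as cell viability by ATP luminescence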
# [5] = Late stage counterscreen results from the probe development effort to identify activators of signal transducer and activator of transcription 1 (STAT1): luminescence-based cell-based dose response assay to identify cytotoxic compounds.; type: functional
# [6] = test system: Streptococcus sp. 'group A'; assay: Streptococcus pyogenes SK(-)GAS viability under kanamycin – luminescence, BacTiterGlo, confirmation, counter-screen for streptokinase expression inhibitor project, dose response (AID 1900); type: functional, organism-based
# Streptokinase A = target: T3, Streptokinase A (Streptococcus pyogenes serotype M1, UniProt P10520); assay: viability-normalized secreted streptokinase activity reduction – plasminogen activation absorbance, OD405, dose response (AID 1914); type: functional, Streptococcus pyogenes M1 GAS;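 also: secreted streptokinase activity via plasminogen activation per viability signal from cell pellet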
# T3 sequence (P10520 whole entry): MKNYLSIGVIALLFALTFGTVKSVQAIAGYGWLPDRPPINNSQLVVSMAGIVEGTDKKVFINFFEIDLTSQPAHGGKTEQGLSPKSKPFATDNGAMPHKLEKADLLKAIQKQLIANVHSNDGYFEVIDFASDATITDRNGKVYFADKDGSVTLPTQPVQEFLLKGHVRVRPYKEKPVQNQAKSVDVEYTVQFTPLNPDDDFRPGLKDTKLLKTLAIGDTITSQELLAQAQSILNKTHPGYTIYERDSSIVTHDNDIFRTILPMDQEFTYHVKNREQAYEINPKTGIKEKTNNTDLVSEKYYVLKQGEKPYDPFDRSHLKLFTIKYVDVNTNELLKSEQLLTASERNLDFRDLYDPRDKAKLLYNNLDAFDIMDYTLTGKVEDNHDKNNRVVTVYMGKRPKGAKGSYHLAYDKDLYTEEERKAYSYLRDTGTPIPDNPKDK
# [7] = CCR5-tropic HIV-1 fusion blockers – cell-based, CCR5-tropic Env, dose response (AID 2279); type: functional
# [8] = target: Induced myeloid leukemia cell differentiation protein Mcl-1 (Homo sapiens, UniProt Q07820); type: functional
# Streptococcus = assay: GAS UMAA2166 growth inhibition – luminescence, BacTiterGlo, counter-screen for streptokinase expression inhibitor project, dose response (AID 1915); type: functional, organism-based;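 also: potency for reduction of bacterial viability or growth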
# T1 sequence (P08659 whole entry): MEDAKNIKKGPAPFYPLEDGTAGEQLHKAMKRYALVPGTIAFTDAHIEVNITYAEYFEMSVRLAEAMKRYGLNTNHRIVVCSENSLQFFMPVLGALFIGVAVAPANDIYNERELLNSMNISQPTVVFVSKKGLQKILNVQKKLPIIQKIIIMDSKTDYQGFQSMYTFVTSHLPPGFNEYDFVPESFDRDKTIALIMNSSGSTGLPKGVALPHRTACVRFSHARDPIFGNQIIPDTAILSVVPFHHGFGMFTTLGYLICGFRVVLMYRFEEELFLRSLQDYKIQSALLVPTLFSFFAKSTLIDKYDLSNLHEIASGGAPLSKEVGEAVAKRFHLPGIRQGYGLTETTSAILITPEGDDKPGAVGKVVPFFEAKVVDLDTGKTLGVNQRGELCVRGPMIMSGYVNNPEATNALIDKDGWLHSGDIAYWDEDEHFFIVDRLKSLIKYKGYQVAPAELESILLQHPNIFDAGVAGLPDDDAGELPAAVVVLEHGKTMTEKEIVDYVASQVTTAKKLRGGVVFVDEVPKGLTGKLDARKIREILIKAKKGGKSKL
# Cytochrome P450 2C19, sequence (P33261 whole entry): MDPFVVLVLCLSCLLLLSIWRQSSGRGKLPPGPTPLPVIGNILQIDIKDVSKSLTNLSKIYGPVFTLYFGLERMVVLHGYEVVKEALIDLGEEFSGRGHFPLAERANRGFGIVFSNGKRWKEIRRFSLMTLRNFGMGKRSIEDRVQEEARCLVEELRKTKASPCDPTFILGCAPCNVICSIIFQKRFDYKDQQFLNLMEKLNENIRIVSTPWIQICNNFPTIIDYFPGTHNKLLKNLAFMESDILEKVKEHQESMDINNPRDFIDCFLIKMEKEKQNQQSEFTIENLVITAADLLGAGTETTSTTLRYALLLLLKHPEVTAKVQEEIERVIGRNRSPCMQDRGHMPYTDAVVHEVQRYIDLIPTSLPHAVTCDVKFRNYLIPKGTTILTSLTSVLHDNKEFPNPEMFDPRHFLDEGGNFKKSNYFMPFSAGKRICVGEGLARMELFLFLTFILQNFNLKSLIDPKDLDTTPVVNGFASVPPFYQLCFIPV
# Induced myeloid leukemia cell differentiation protein Mcl-1, sequence (Q07820 whole entry): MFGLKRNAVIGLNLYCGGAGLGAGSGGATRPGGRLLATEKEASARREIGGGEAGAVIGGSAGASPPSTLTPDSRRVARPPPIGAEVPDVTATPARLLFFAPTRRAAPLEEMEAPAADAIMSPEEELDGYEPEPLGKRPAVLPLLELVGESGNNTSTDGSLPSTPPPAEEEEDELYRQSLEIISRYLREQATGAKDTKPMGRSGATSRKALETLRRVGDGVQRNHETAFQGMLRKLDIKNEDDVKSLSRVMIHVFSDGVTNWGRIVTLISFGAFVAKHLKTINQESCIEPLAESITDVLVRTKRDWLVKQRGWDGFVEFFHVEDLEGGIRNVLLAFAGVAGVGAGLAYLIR
compound,measurement,setting,value
Nc1ccc2nc(-c3ccccc3)sc2c1,EC50,[1],23.5 µM (active)
same,EC50,[2],0.958 µM (active)
same,EC50,[3],2.44 µM (active)
same,EC50,HT-1080,> 50 µM (not active)
same,IC50,Protein skinhead-1,55.9 µM (inactive)
CC(C)C[C@@H](CC(=O)N[C@H](CC(=O)N[C@@H]1CCCC[C@H]1C(=O)N[C@H](CC(=O)N[C@@H](CCC(=O)O)CC(=O)O)CC(C)C)C(C)C)NC(=O)[C@@H]1CNCC[C@H]1N,AC50,Cytochrome P450 2C19,31.6 µM (inconclusive)
COc1ccc(-c2c3c(cc(C)[n+]2[O-])oc2ccc(OC)cc23)cc1,IC50,[4],22 µM (active)
O=C(/C=C/Nc1ccccc1F)c1ccc(Br)cc1,EC50,[2],74.5 µM (active)
same,EC50,[3],> 112 µM (not active)
same,IC50,[5],> 55.7 µM (not active)
CC1(c2ccccc2)CC(C)(C)N2C(=O)/C(=C3\SC(=S)NC3=O)c3cccc1c32 (stereo not given),EC50,[6],0.435 µM (active)
same,EC50,Streptokinase A,> 150 µM (not active)
same,IC50,[7],9.92 µM (active)
same,IC50,[8],1.18 µM (active)
same,EC50,Streptococcus,3.08 µM (active)
